In patent EP0343367A1, “Mercapto-compounds having mucolytic action and a process for their preparation” (CAMILLO CORVI S.p.A., priority 1988, dated 1989) one finds ED50 data, which are given here for two molecules.

The test system of one experiment is rat. Description: Expectorating activity in the rat (method of K. Kogi et al.). To be noted: os, read-out: Expectorating activity in the rat, ED₅₀ os. It counts as in vivo. The source says:
(§1) The following table indicates e.g. the bronchial secretion stimulating and mucolytic activity of the compound 10 (R⁴=H, R⁵=OH) as compared to sobrerol.

In another experiment the test system is healthy rabbit. Description: Production of mucus in the healthy rabbit (method of R. Scuri et al.). To be noted: Oryctolagus cuniculus, administration route: oral. It is filed as in vivo.
Source text: as §1

Setting [1] is: read-out: Production of mucus in the healthy rabbit: No.of animals/increase, ED₅₀.
Setting [2] is: read-out: Production of mucus in the healthy rabbit: Production of mucus, ED₅₀.

The structures appear in SMILES notation. Like-named read-outs stand apart in the source and are kept apart here.

`CC1=CCC(C(C)(C)O)CC1O` (stereo not drawn) [Sobrerol]: the ED50 in the experiment with rat came to 40 mg/kg; in the experiment with healthy rabbit (setting [1]) it was 500 mg/kg; in the experiment with healthy rabbit (setting [2]) it was 500 mg/kg.

Consider `CC(C)(O)C1CC=C(CS)C(O)C1` (stereo not drawn) [Compound 10, 2-hydroxy-4-(1-hydroxy-1-methylethyl)-6-cyclohexene-1-methanethiol], for which the ED50 with rat came out at 100 mg/kg; with healthy rabbit (setting [1]) it was 400 mg/kg; in the experiment on healthy rabbit (setting [2]) it was 400 mg/kg.
